Entries after “also recorded” stand apart in the source; their conditions may differ.
Assays:
[1] = system: UBXN2A; experiment: Western blot of UBXN2A protein in treated HCT-116 cells; type: cell-based, human; settings: VTD 20 and 40 μM, 24 hours
Protocol: Our in vivo results encouraged us to screen for compounds that can enhance expression of UBXN2A. Using the UBXN2A promoter upstream of a luciferase construct that was transiently transfected to HCT-116 cells, we performed a high-throughput drug screen with 1800 FDA approved drugs, synthetic compounds, and natural products. Forty-eight hours after transfection, cells were treated with compounds for 24 hours in triplicate (FIG. 16A). […] We looked at protein expression of UBXN2A as well as P47 (another member of the UBXD family) to confirm the selectivity of VH as a selective enhancer of UBXN2A protein in cells. […] We observed a different level of VH-dependent UBXN2A induction in different segments of the gastrointestinal system (esophagus to rectum; data not shown).
The alkaloid fraction of Veratrine is known to contain a mixture of two major alkaloid esters: Veratridine (VTD) and Cevadine. VTD, with a veratroyl group at the 3-OR1 position and a free hydroxyl group at the 15-O-R2 position can function as an antihypertensive plant-derived substance. […]
A cell-based screen was conducted in search of compounds that induce the expression of the UBXN2A gene. […] A glow luciferase activity assay was conducted in triplicate followed by semi-quantitative RT-PCR and WB analysis for UBXN2A, p47 (negative control), or GAPDH± Veratrine or its purified form VTD. […]

[2] = system: human umbilical vein endothelial cells (HUVECs); experiment: Effect on non-cancerous cells; type: cell-based
Text: We next performed a clonogenic survival assay (S4E) to determine colony formation in cancer cells in the presence and absence of VTD. […] At the same time, we measured the mot-2, p53, and UBXN2A protein levels in all these cell lines. […] To verify whether VTD-induced cell death is mediated through the UBXN2A-mot-2-p53 axis, we looked at the expression of p53 in the cytoplasm and nucleus of HCT-116 cells following VTD treatment. […] Due to a high cell death in higher doses of VTD, we could not use WB analysis for reliable p53 and UBXN2A detection and quantification. Finally, we checked the effect of VTD on non-cancerous cell lines. We incubated human umbilical vein endothelial cells (HUVECs), which mimic non-cancerous endothelial cells next to tumor cells, with VTD (S4G). […] Due to the different levels of the stress condition, we observed more sensitivity to VTD in LoVo and U2OS cells versus HCT-116 cells. In addition, lack of similar response in normal cells due to the absence of stresses and cytoplasmic mot-2 further explains VTD is therefore a drug that selectively targets cancer cell.

[3] = system: Rictor; experiment: Flow cytometry with anti-Rictor antibody in SW480 cells; type: cell-based, human; settings: VTD 5 days (semi-chronic treatment), N=3
Protocol: In panels A-E, SW480 cells were treated with VTD for 5 days (a semi-chronic treatment) and the cells were collected and subjected to flow-cytometry analysis using anti-Rictor antibody.

COc1ccc(C(=O)O[C@H]2CC[C@@]3(C)[C@@H]4CC[C@H]5[C@]6(O)C[C@H](O)[C@@]7(O)[C@@H](CN8C[C@@H](C)CC[C@H]8[C@@]7(C)O)[C@]6(O)C[C@@]53O[C@]24O)cc1OC [VTD, Veratridine]
UBXN2A protein expression (WB) [1]: induces UBXN2A expression in a dose-dependent manner; also recorded: increases UBXN2A protein levels in a dose-dependent manner
response of non-cancerous HUVEC cells ([2]; first 24 hours): did not respond
response of non-cancerous HUVEC cells ([2]; highest dose of VTD, 48 hours): moderate response
level of Rictor proteins [3]: significantly decreases Rictor proteins

Reference: patent publication US12233129B2, “Methods and compositions for the treatment of cancer” (priority 2019, dated 2025)
